Structures can show the parent of a compound that is named as a salt.
Target: T1, muscarinic M1 receptor (Homo sapiens, UniProt P11229)
T1 sequence (P11229 1-460): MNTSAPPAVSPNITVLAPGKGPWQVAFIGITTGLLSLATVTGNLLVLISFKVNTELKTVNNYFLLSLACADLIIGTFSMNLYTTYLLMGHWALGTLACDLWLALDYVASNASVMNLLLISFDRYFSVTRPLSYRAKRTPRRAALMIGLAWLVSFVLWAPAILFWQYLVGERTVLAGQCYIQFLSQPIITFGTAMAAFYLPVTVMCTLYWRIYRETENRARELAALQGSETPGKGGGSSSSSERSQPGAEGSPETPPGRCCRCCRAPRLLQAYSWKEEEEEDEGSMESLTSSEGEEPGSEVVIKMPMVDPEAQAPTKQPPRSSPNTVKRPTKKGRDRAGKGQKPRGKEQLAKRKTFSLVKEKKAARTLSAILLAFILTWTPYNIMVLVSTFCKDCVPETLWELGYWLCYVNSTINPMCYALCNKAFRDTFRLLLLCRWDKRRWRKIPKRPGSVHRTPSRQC
Assay: Allosteric potency EC50 for muscarinic M1 receptor (CHO pCRE-Luc reporter assay)
Assay type: cell-based
Conditions: in presence of EC20 of acetylcholine; CHO cells, luciferase reporter, 4 hours
Procedure: Determination of Allosteric Potency EC50 Values for Muscarinic M1 Receptor:
A stable CHO cell line expressing recombinant human Muscarinic M1 receptor and pCRE-Luc reporter system was used for cell-based assay. The assay offers a non-radioactive based approach to determine binding of a compound to GPCRs. In this specific assay, the level of intracellular cyclic AMP which is modulated by activation or inhibition of the receptor is measured. The recombinant cells harbor luciferase reporter gene under the control of cyclic AMP response element.
The above cells were grown in 96 well clear bottom white plates in Hams F12 medium containing 10% fetal bovine serum (FBS). Prior to the addition of compounds or standard agonist, cells were serum starved overnight. Increasing concentrations of test compounds were added along with EC20 of acetylcholine in OptiMEM medium to the cells. The incubation was continued at 37° C. in CO2 incubator for 4 hours. Medium was removed and cells were washed with phosphate buffered saline. The cells were lysed and luciferase activity was measured in a Luminometer. Luminescence units were plotted against the compound concentrations using Graphpad software. EC50 values of the compounds were defined as the concentration required in stimulating the luciferase activity by 50% in presence of EC20 of acetylcholine and the results are provided in table 1.

Row | Structure (SMILES) | EC50 [nM]
1 | Cn1ccc2c(Cc3ccc(F)cc3)cc(C(=O)N[C@@H]3CCOC[C@@H]3O)nc21 (racemic) [Example 35, Racemic cis-N-(3-Hydroxytetrahydropyran-4-yl)-4-(4-fluorobenzyl)-1-methyl-H-pyrrolo[2,3-b]pyridine-6-carboxamide] | 1470
2 | Cn1ccc2c(Cc3ccnc(F)c3)cc(C(=O)NC3CCOCC3O)nc21 (single isomer, unassigned) [Example 38, Racemic trans-N-(3-Hydroxytetrahydropyran-4-yl)-4-(2-fluoropyridin-4-ylmethyl)-1-methyl-1H-pyrrolo[2,3-b]pyridine-6-carboxamide] | 983
3 | Cn1ccc2c(Cc3ccnc(F)c3)cc(C(=O)NC3CCOCC3O)nc21 (single isomer, unassigned) [Example 45, Racemic cis-N-(3-Hydroxytetrahydropyran-4-yl)-4-(2-fluoropyridin-4-ylmethyl)-1-methyl-1H-pyrrolo[2,3-b]pyridine-6-carboxamide] | 3150
4 | Cn1ccc2c(Cc3ccc(F)cc3)cc(C(=O)N[C@H]3CCOC[C@H]3O)nc21 (single isomer, unassigned; isomer-i) [Example 36, cis-N-(3-Hydroxytetrahydropyran-4-yl)-4-(4-fluorobenzyl)-1-methyl-1H-pyrrolo[2,3-b]pyridine-6-carboxamide (Isomer-I)] | 3170
5 | Cn1ccc2c(Cc3ccc(F)c(F)c3)cc(C(=O)N[C@H]3CCOC[C@H]3O)nc21 (single isomer, unassigned; isomer-i) [Example 41, cis-N-(3-Hydroxytetrahydropyran-4-yl)-4-(3,4-difluorobenzyl)-1-methyl-1H-pyrrolo[2,3-b]pyridine-6-carboxamide (Isomer-I)] | 1230
6 | Cn1ccc2c(Cc3cccc(F)c3F)cc(C(=O)N[C@@H]3CCOC[C@H]3O)nc21 (single isomer, unassigned; isomer-i) [Example 43, trans-N-(3-Hydroxytetrahydropyran-4-yl)-4-(2,3-difluorobenzyl)-1-methyl-1H-pyrrolo[2,3-b]pyridine-6-carboxamide (Isomer-I)] | 2530
7 | Cn1ccc2c(Cc3ccnc(F)c3)cc(C(=O)N[C@H]3CCOC[C@H]3O)nc21 (single isomer, unassigned; isomer-i) [Example 46, cis-N-(3-Hydroxytetrahydropyran-4-yl)-4-(2-fluoropyridin-4-ylmethyl)-1-methyl-1H-pyrrolo[2,3-b]pyridine-6-carboxamide (Isomer-I)] | 2960
8 | Cn1ccc2c(Cc3ccc(Cl)nc3)cc(C(=O)N[C@H]3CCOC[C@H]3O)nc21 (single isomer, unassigned; isomer-i) [Example 49, cis-N-(3-Hydroxytetrahydropyran-4-yl)-4-(2-chloropyridin-5-ylmethyl)-1-methyl-1H-pyrrolo[2,3-b]pyridine-6-carboxamide (Isomer-I)] | 1410
9 | Cn1ccc2c(Cc3ccc(F)c(F)c3)cc(C(=O)N[C@@H]3CCOC[C@H]3O)nc21 (single isomer, unassigned; isomer-i) [Example 51, trans-N-(3-Hydroxytetrahydropyran-4-yl)-4-(3,4-difluorobenzyl)-1-methyl-1H-pyrrolo[2,3-b]pyridine-6-carboxamide (Isomer-I)] | 1820
10 | Cn1ccc2c(Cc3ccc(F)cc3)cc(C(=O)N[C@H]3CCOC[C@H]3O)nc21 (single isomer, unassigned; isomer-ii) [Example 37, cis-N-(3-Hydroxytetrahydropyran-4-yl)-4-(4-fluorobenzyl)-1-methyl-1H-pyrrolo[2,3-b]pyridine-6-carboxamide (Isomer-II)] | 1250
11 | Cn1ccc2c(Cc3ccc(F)c(F)c3)cc(C(=O)N[C@H]3CCOC[C@H]3O)nc21 (single isomer, unassigned; isomer-ii) [Example 42, cis-N-(3-Hydroxytetrahydropyran-4-yl)-4-(3,4-difluorobenzyl)-1-methyl-1H-pyrrolo[2,3-b]pyridine-6-carboxamide (Isomer-II)] | 2290
12 | Cn1ccc2c(Cc3ccc(Cl)nc3)cc(C(=O)N[C@H]3CCOC[C@H]3O)nc21 (single isomer, unassigned; isomer-ii) [Example 50, cis-N-(3-Hydroxytetrahydropyran-4-yl)-4-(2-chloropyridin-5-ylmethyl)-1-methyl-1H-pyrrolo[2,3-b]pyridine-6-carboxamide (Isomer-II)] | 2920

The next lines start with the values.

Row | EC50 [nM] | Structure (SMILES)
13 | 486 | Cn1ccc2c(Cc3ccc(F)cc3)cc(C(=O)N[C@@H]3CCOC[C@H]3O)nc21 (racemic) [Example 32, Racemic trans-N-(3-Hydroxytetrahydropyran-4-yl)-4-(4-fluorobenzyl)-1-methyl-1H-pyrrolo[2,3-b]pyridine-6-carboxamide]
14 | 31 | Cn1ccc2c(Cc3ccc(-c4cscn4)cc3)cc(C(=O)NC3CCOCC3O)nc21 (racemic) [Example 53, Racemic trans-N-(3-Hydroxytetrahydropyran-4-yl)-4-[4-(thiazol-4-yl)benzyl]-1-methyl-1H-pyrrolo[2,3-b]pyridine-6-carboxamide]
15 | 38 | Cn1cc(-c2ccc(Cc3cc(C(=O)NC4CCOCC4O)nc4c3ccn4C)cc2)cn1 (racemic) [Example 56, Racemic trans-N-(3-Hydroxytetrahydropyran-4-yl)-4-[4-(1-methyl-1H-pyrazol-4-yl)benzyl]-1-methyl-1H-pyrrolo[2,3-b]pyridine-6-carboxamide]
16 | 136 | O=C(N[C@@H]1CCOC[C@H]1O)c1cc(Cc2ccc(F)cc2)c2c(n1)OCCO2 (single isomer, unassigned) [Example 113, trans-N-(3-Hydroxytetrahydropyran-4-yl)-8-(4-fluorobenzyl)-2,3-dihydro-[1,4]dioxino[2,3-b]pyridine-6-carboxamide (Isomer-IT)]
17 | 968 | Cn1ccc2c(Cc3ccnc(F)c3)cc(C(=O)N[C@@H]3CCOC[C@H]3O)nc21 (single isomer, unassigned; isomer-i) [Example 39, trans-N-(3-Hydroxytetrahydropyran-4-yl)-4-(2-fluoropyridin-4-ylmethyl)-1-methyl-1H-pyrrolo[2,3-b]pyridine-6-carboxamide (Isomer-I)]
18 | 764 | Cn1ccc2c(Cc3ccc(-c4cscn4)cc3)cc(C(=O)N[C@@H]3CCOC[C@H]3O)nc21 (single isomer, unassigned; isomer-i) [Example 54, trans-N-(3-Hydroxytetrahydropyran-4-yl)-4-[4-(thiazol-4-yl)benzyl]-1-methyl-1H-pyrrolo[2,3-b]pyridine-6-carboxamide (Isomer-I)]
19 | 755 | Cn1ccc2c(Cc3ccnc(F)c3)cc(C(=O)N[C@@H]3CCOC[C@H]3O)nc21 (single isomer, unassigned; isomer-ii) [Example 40, trans-N-(3-Hydroxytetrahydropyran-4-yl)-4-(2-fluoropyridin-4-ylmethyl)-1-methyl-1H-pyrrolo[2,3-b]pyridine-6-carboxamide (Isomer-II)]
20 | 748 | Cn1ccc2c(Cc3cccc(F)c3F)cc(C(=O)N[C@@H]3CCOC[C@H]3O)nc21 (single isomer, unassigned; isomer-ii) [Example 44, trans-N-(3-Hydroxytetrahydropyran-4-yl)-4-(2,3-difluorobenzyl)-1-methyl-1H-pyrrolo[2,3-b]pyridine-6-carboxamide (Isomer-II)]
21 | 32 | Cn1ccc2c(Cc3ccc(-c4cscn4)cc3)cc(C(=O)N[C@@H]3CCOC[C@H]3O)nc21 (single isomer, unassigned; isomer-ii) [Example 55, trans-N-(3-Hydroxytetrahydropyran-4-yl)-4-[4-(thiazol-4-yl)benzyl]-1-methyl-1H-pyrrolo[2,3-b]pyridine-6-carboxamide (Isomer-II)]
22 | 222 | COc1ccc(Cc2cc(C(=O)N[C@@H]3CCOC[C@H]3O)nc3c2ccn3C)cc1 (single isomer, unassigned; isomer-ii) [Example 61, trans-N-(3-Hydroxytetrahydropyran-4-yl)-4-(4-methoxybenzyl)-1-methyl-1H-pyrrolo[2,3-b]pyridine-6-carboxamide (Isomer-II)]
23 | 6 | O=C(N[C@@H]1CCOC[C@H]1O)c1cc(Cc2ccc(-c3cscn3)cc2)c2c(n1)CNCC2 (single isomer, unassigned; isomer-ii) [Example 97, trans-N-(3-Hydroxytetrahydropyran-4-yl)-4-[4-(thiazol-4-yl)benzyl]-5,6,7,8-tetrahydro[1,7]naphthyridine-2-carboxamide Hydrochloride (Isomer-II)]
24 | 109 | O=C(N[C@@H]1CCOC[C@H]1O)c1cc(Cc2ccc(F)cc2)c2c(n1)CNCC2 (single isomer, unassigned; isomer-ii) [Example 98, trans-N-(3-Hydroxytetrahydropyran-4-yl)-4-(4-fluorobenzyl)-5,6,7,8-tetrahydro[1,7]naphthyridine-2-carboxamide Hydrochloride (Isomer-II)]

From patent publication US11040026B2, “Muscarinic M1 receptor positive allosteric modulators” (SUVEN LIFE SCIENCES LIMITED, priority 2016, dated 2021)
